Patent US8835403B2, “Algin oligosaccharides and the derivatives thereof as well as the manufacture and the use of the same” (priority 2004, dated 2014)

Experiments:
Aβ1-40 fibril = Aβ1-40 fibril (Homo sapiens, UniProt P05067); test: Destability of preformed Aβ1-40 fibril (TEM); assay type: biochemical; conditions: Aβ1-40 aged 7 d, then heparin for additional 24 h (FIG. 10B)
Experimental: 1 mg/ml of distilled water-resolved Aβ1-40 is aged at 37° C. for 7d, after which it is exposed to 6-mer for 3 days.

Aβ1-40 = Aβ1-40 (Homo sapiens, UniProt P05067); test: Conformation of Aβ1-40 by CD spectra; assay type: biochemical; conditions: heparin (FIG. 11B)
Experimental: CD spectra (J-[…], JASCO, Japan) of monomeric Aβ1-40 (250 μg/ml in TBS (100 mM Tris, 50 mM NaCl, pH7.4)) incubated at 37° C. for 12 h is mainly characterized by β-sheet secondary structure (FIG. 11A).

[1] = system: AD mice induced by Aβ1-40; test: Morris water maze test of AD mice induced by Aβ1-40; assay type: in vivo
Experimental: (§1) Male Balb/c mice (18-22 g, purchased from Laboratory Centre of Shandong University) are weighed and randomly assigned to six groups as follows: a control group, a model group, a low-concentration (15 mg/kg) 6-mer-treated group, a middle-concentration (30 mg/kg) 6-mer-treated group, a high-concentration (60 mg/kg) 6-mer-treated group, and a Huperzine A-treated (HBY, with a concentration of 0.2 mg/kg) group. The mice were oral administered with corresponding drugs on day 3 after grouping. The drugs were administered once a day consecutively with a dosage of 0.5 ml/20 g until the experiment is completed. The mice of control and model groups were simultaneously administered with an equivalent amount of normal saline.
On the 8th day after drug administration, mice are injected with aged Aβ1-40 except the vehicle group as the method of reference (Jhoo J H et al., β-amyloid (1-42)-induced learning and memory deficits in mice: involvement of oxidative burdens in the hippocampus and cerebral cortex. Behavioural Brain Research (2004) 155: 185-196) to induce the AD model. Aged Aβ1-40 solution is injected into the right cerebral ventricle. […] However, on the 1st day of test, this increased escape latency is shortened in all drug-treated groups except the group treated with 15 mg/kg of 6-mer. And the escape latency of 60 mg/kg 6-mer-treated group has statistical significance compared with that of the model group (P<0.05). On the 2nd and 3rd day of test, the escape latency of all drug-treated groups are shortened, wherein that of 60 mg/kg 6-mer-treated group and HBY-treated group have statistical significance compared with that of the model group (P<0.05).
On the 4th day of Morris water maze test, the original plate is removed and the percentage of time of mice staying at the phase of original plate within 60 s is recorded.

[2] = system: AD mice induced by Aβ1-40; test: Step-through passive avoidance task of AD mice induced by Aβ1-40; assay type: in vivo; conditions: HBY 0.2 mg/kg
Experimental: as §1
On the 25th day after Aβ injection, mice are further trained for step-through passive avoidance task. In the task, each mouse is placed in the illuminated compartment of the apparatus, facing away from the dark compartment, and the door is opened, allowing access to the dark compartment. Once the mouse enters the dark compartment, it receives an inescapable electric shock on the feet (36 V) through the stainless steel grid floor. The test is similarly performed after 24 h. The entry time of each mouse into the dark chamber (step-through latency, maximum testing limited to 3 min) and the number of entries into the dark compartment (number of errors) are recorded.
Each group has 8 animals. The data are presented as mean±SE. The symbol # means significant difference compared with the control group (P<0.05). * means significant difference compared with the model group (P<0.05). The step-through latency of Aβ1-40-treated group is shortened (P<0.01) and the error number is increased (P<0.05) compared with that of the control group, indicating the successful establishment of AD mice.

ChAT = test: Cerebral cortex ChAT activity of Aβ1-40-induced AD mice; assay type: in vivo; conditions: HBY 0.2 mg/kg
SOD = SOD activity of cerebral cortex and hippocampus of Aβ1-40-induced AD mice; assay type: in vivo; conditions: HBY 0.2 mg/kg
MDA = MDA content of cerebral cortex and hippocampus of Aβ1-40-induced AD mice; assay type: in vivo; conditions: HBY 0.2 mg/kg
GSH-PX = GSH-PX activity in cerebral cortex and hippocampus of Aβ1-40-induced AD mice; assay type: in vivo; conditions: HBY 0.2 mg/kg
Experimental: (§2) Following the behavioral test, rats are decapitated. Cerebral cortex and hippocampus are dissected on ice immediately, and stored at −80° C. after quick freezing in liquid nitrogen for 1 hour. MDA, SOD, GSH-PX, Na^+, K^+-ATPase, AchE and CHAT activities in the brain regions are determined using the respective kits. The homogenates of cerebral cortex and hippocampus are prepared with saline with a final concentration of 10% and 5%. The supernatant were obtained after centrifuging at 3600 rpm to test MDA, CuZn-SOD, GSH-PX, Na^+K^+-ATPase, AchE, and CHAT activities. The activity of ChAT is determined with isotope-labeled method. The other indexes and amount of total proteins are tested with the respective kits supplied by Nanjing Jiancheng Bioengineering Institute.
The GSH-PX activity in cerebral cortex and hippocampus is decreased after usage of Aβ with significant difference to the control group in hippocampus (p<0.05).

Na+, K+-ATPase = Na+, K+-ATPase activity in cerebral cortex and hippocampus of Aβ1-40-induced AD mice; assay type: in vivo; conditions: HBY 0.2 mg/kg
Experimental: as §2

[3] = system: diabetic mice induced by STZ; test: Blood glucose of diabetic mice induced by streptozotocin (STZ); assay type: in vivo; conditions: dimethyldiguanide 5 mg/kg for 10 days, blood on 11th day; STZ 150 mg/kg i.p.
Experimental: Sixty male NIH mice (weighed 18-22 g) are randomly divided to control, model, 50, 150, 450 mg/kg 6-mer-treated and 5 mg/kg dimethyldiguanide-treated groups. The mice are injected intraperitoneally with 150 mg/kg STZ except control group at the 1st day. Then the mice are given accordingly drugs consecutively for 10 days and eyeballs are picked out to extract blood on the 11th day. The blood is taken to measure the glucose concentration.

Sequence of Aβ1-40 fibril (P05067 672-711 limits assumed): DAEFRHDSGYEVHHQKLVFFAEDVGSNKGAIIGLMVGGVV
Sequence of Aβ1-40 (P05067 672-711 limits assumed): as above

heparin [reference compound]
effect on preformed Aβ1-40 fibers (TEM) (Aβ1-40 fibril): become much denser and longer | conformational transition of Aβ1-40 to β-sheet structure (CD) (Aβ1-40): significantly accelerates the conformational transition to β-sheet structure

C/C=C1\[C@H]2C=C(C)C[C@]1(N)c1ccc(=O)[nH]c1C2 [HBY, Huperzine A, reference compound]
Escape latency (s) 1st day ([1]; HBY 0.2 mg/kg oral once a day, 1st day of test): 76.29 ± 9.74 s | Escape latency (s) 2nd day ([1]; HBY 0.2 mg/kg oral once a day, 2nd day of test): 64.58 ± 10.36 s | Escape latency (s) 3rd day ([1]; HBY 0.2 mg/kg oral once a day, 3rd day of test): 63.83 ± 10.12 s | Latency bias(%) ([1]; probe trial, 4th day, within 60 s, HBY 0.2 mg/kg): 22.18 ± 5.93% | step-through latency ([2]; vs model group (FIG. 5)): significantly prolonged | number of errors ([2]; vs model group (FIG. 6)): significantly reduced | ChAT activity (pmol/mg prot./min) (ChAT): 100.70 ± 5.99 pmol/mg prot./min | SOD activity (NU/mg prot.) cerebral cortex (SOD; cerebral cortex): 48.95 ± 2.13 NU/mg prot. | SOD activity (NU/mg prot.) hippocampus (SOD; hippocampus): 69.91 ± 6.51 NU/mg prot. | MDA content (nmol/ml) cerebral cortex (MDA; cerebral cortex): 1.61 ± 0.13 nmol/mL | MDA content (nmol/ml) hippocampus (MDA; hippocampus): 2.26 ± 0.39 nmol/mL | GSH-PX (U/mg prot.) cerebral cortex (GSH-PX; cerebral cortex): 8.85 ± 1.33 U/mg prot. | GSH-PX (U/mg prot.) hippocampus (GSH-PX; hippocampus): 5.29 ± 0.99 U/mg prot. | ATPase activity (μmol Pi/mg prot./hour) cerebral cortex (Na+, K+-ATPase; cerebral cortex): 0.91 ± 0.05 μmol Pi/mg prot./hour | ATPase activity (μmol Pi/mg prot./hour) hippocampus (Na+, K+-ATPase; hippocampus): 2.35 ± 10.43 μmol Pi/mg prot./hour

CN(C)C(=N)NC(=N)N [Dimethyldiguanide, dimethyldiguanide, reference compound]
Blood glucose concentration [3]: 201.6 ± 58.9 mg/dL
